In US8518944B2, “Compounds as casein kinase inhibitors” (Pfizer Inc., priority 2009, dated 2013):
Counter-ions that a name gives are not always drawn.

Key:
CK1ε wild type enzyme = CK1ε wild type enzyme (Homo sapiens, UniProt P49674); assay: CK1ε kinase assay (Kinase-Glo luminescence); format: biochemical; conditions: ATP 10 μM, CK1ε wild type enzyme 2.5 nM, peptide substrate 42 μM, 25° C., 70 minutes; values marked * are geometric mean of 5-16 determinations; read-out: CKIε IC50 (nM), geometric mean of 2-4 determinations
Chain of CK1ε wild type enzyme (P49674 whole entry): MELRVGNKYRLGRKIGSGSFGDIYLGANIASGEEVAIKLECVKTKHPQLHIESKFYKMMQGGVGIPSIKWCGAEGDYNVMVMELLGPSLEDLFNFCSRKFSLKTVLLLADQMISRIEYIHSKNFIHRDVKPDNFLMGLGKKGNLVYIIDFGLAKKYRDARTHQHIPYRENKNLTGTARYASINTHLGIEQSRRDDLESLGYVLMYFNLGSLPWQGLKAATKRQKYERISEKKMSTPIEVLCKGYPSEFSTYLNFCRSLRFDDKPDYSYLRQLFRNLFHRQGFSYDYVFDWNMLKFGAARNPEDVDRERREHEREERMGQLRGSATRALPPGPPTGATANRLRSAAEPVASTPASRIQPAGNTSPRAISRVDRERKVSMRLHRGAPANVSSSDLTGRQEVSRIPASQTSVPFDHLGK
Protocol: The CK1ε kinase assay was performed in a standard buffer containing ATP at 10 μM, CK1ε wild type enzyme at 2.5 nM, and 42 μM concentration of the peptide substrate PLSRTLpSVASLPGL (Flotow et al., 1990). The reaction was incubated at 25° C. for 70 minutes. Enzyme inhibition was measured in the presence of 1 μL of the CK1ε inhibitor, or 4% DMSO. Detection was carried out as described for the Kinase-Glo Assay (Promega). Luminescent output was measured on the PerkinElmer EnVision plate reader (PerkinElmer, Waltham, Mass.).

CK1δ = CK1δ (Homo sapiens, UniProt P48730); assay: CK1δ kinase assay (Kinase-Glo luminescence); format: biochemical; conditions: ATP 10 μM, CK1δ enzyme 2 nM, peptide substrate 42 μM, 25° C., 85 minutes; values marked * are geometric mean of 5-16 determinations; read-out: CKIδ IC50 (nM), geometric mean of 2-4 determinations
Chain of CK1δ (P48730 whole entry): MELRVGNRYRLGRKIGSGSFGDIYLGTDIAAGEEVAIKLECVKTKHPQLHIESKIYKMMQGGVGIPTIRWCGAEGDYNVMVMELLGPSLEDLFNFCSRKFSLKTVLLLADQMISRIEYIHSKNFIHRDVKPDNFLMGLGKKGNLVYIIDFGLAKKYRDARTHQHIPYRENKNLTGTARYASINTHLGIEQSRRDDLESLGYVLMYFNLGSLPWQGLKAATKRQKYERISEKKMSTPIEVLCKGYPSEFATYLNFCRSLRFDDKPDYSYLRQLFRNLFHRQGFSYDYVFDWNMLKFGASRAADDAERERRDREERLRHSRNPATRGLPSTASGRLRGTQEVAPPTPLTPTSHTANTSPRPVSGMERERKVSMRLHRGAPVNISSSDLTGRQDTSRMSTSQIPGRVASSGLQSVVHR
Protocol: The CK1δ kinase assay was performed in a standard buffer containing ATP at 10 μM, CK1δ enzyme at 2 nM, and the peptide substrate PLSRTLpSVASLPGL at 42 μM. The reaction was incubated at 25° C. for 85 minutes. Enzyme inhibition was performed in the presence of either 1 μL of CK1δ inhibitor, or 4% DMSO. Detection of luminescent output on a PerkinElmer EnVision plate reader (PerkinElmer, Waltham, Mass.) was performed as described for the Kinase-Glo Assay (Promega).

Row | SMILES | IC50 (CK1ε wild type enzyme) | IC50 (CK1δ)
1 | Nc1nccc(-c2c(-c3ccc(F)cc3)ncn2C2CCN(Cc3ccc4nccnc4c3)C2)n1 (centres unmarked) [Example 35, 4-{4-(4-fluorophenyl)-1-[1-(quinoxalin-6-ylmethyl)pyrrolidin-3-yl]-1H-imidazol-5-yl}pyrimidin-2-amine] | 170 nM | 67.8 nM
2 | Nc1nccc(-c2c(-c3ccc(F)cc3)ncn2C2CCN(Cc3ccnc4cccnc34)C2)n1 (centres unmarked) [Example 38, 4-{4-{4-fluorophenyl)-1-[1-(1,5-naphthyridin-4-ylmethyl)pyrrolidin-3-yl]-1H-imidazol-5-yl}pyrimidin-2-amine] | 158 nM | 55.8 nM
3 | Fc1ccc(-c2ncn(C3CCN(Cc4cn5ccccc5n4)C3)c2-c2ccncn2)cc1 (centres unmarked) [Example 39, 2-({3-[4-(4-fluoro-phenyl)-5-pyrimidin-4-yl-1H-imidazol-1-yl]pyrrolidin-1-yl}methyl)imidazo[1,2-a]pyridine, trifluoroacetate salt] | 644 nM | 211 nM
4 | Fc1ccc(-c2ncn(C3CCN(Cc4cnc5ccnn5c4)C3)c2-c2ccncn2)cc1 (centres unmarked) [Example 40, 6-({3-[4-(4-fluorophenyl)-5-pyrimidin-4-yl-1H-imidazol-1-yl]pyrrolidin-1-yl}methyl)pyrazolo[1,5-a]pyrimidine, trifluoroacetate salt] | 798 nM | 178 nM
5 | Cc1c(CN2CCC(n3cnc(-c4ccc(F)cc4)c3-c3ccncn3)C2)nc2ccccn12 (centres unmarked) [Example 41, 2-({3-[4-(4-fluorophenyl)-5-pyrimidin-4-yl-1H-imidazol-1-yl]pyrrolidin-1-yl}methyl)-3-methylimidazo[1,2-a]pyridine, trifluoroacetate salt] | 1990 nM | 595 nM
6 | COCCc1ncc(CN2CCC(n3cnc(-c4ccc(F)cc4)c3-c3ccncn3)C2)cn1 (centres unmarked) [Example 42, 5-({3-[4-(4-fluorophenyl)-5-pyrimidin-4-yl-1H-imidazol-1-yl]pyrrolidin-1-yl}methyl)-2-(2-methoxyethyl)pyrimidine, trifluoroacetate salt] | 1530 nM | 679 nM

More lines, now with the values ahead:

Row | IC50 (CK1ε wild type enzyme) | IC50 (CK1δ) | SMILES
7 | 266 nM | 91.6 nM | Cc1cccc(CN2CCC(n3cnc(-c4ccc(F)cc4)c3-c3ccnc(N)n3)C2)n1 (centres unmarked) [Example 30, 4-[4-(4-fluorophenyl)-1-{1-[(6-methylpyridin-2-yl)methyl]pyrrolidin-3-yl}-1H-imidazol-5-yl]pyrimidin-2-amine]
8 | 165 nM | 47.6 nM | Cc1cnc(CN2CCC(n3cnc(-c4ccc(F)cc4)c3-c3ccnc(N)n3)C2)c(F)c1 (centres unmarked) [Example 31, 4-[1-{1-[(3-fluoro-5-methylpyridin-2-yl)methyl]pyrrolidin-3-yl}-4-(4-fluorophenyl)-1H-imidazol-5-yl]pyrimidin-2-amine]
9 | 150 nM | 61.1 nM | Cc1ncccc1CN1CCC(n2cnc(-c3ccc(F)cc3)c2-c2ccnc(N)n2)C1 (centres unmarked) [Example 32, 4-[4-(4-fluorophenyl)-1-{1-[(2-methylpyridin-3-yl)methyl]pyrrolidin-3-yl}-1H-imidazol-5-yl]pyrimidin-2-amine]
10 | 140 nM | 55.1 nM | Cc1cc(CN2CCC(n3cnc(-c4ccc(F)cc4)c3-c3ccnc(N)n3)C2)no1 (centres unmarked) [Example 33, 4-[4-(4-fluorophenyl)-1-{1-[(5-methylisoxazol-3-yl)methyl]pyrrolidin-3-yl}-1H-imidazol-5-yl]pyrimidin-2-amine]
11 | 211 nM | 76.6 nM | Nc1nccc(-c2c(-c3ccc(F)cc3)ncn2C2CCN(Cc3ccncc3)C2)n1 (centres unmarked) [Example 34, 4-{4-(4-fluorophenyl)-1-[1-(pyridin-4-ylmethyl)pyrrolidin-3-yl]-1H-imidazol-5-yl}pyrimidin-2-amine]
12 | 140 nM | 56.3 nM | Nc1nccc(-c2c(-c3ccc(F)cc3)ncn2C2CCN(Cc3cncc4ccccc34)C2)n1 (centres unmarked) [Example 36, 4-{4-(4-fluorophenyl)-1-[1-(isoquinolin-4-ylmethyl)pyrrolidin-3-yl]-1H-imidazol-5-yl}pyrimidin-2-amine]
13 | 124 nM | 46.6 nM | Cc1cc(C)c(CN2CCC(n3cnc(-c4ccc(F)cc4)c3-c3ccnc(N)n3)C2)cn1 (centres unmarked) [Example 37, 4-[1-{1-[(4,6-dimethylpyridin-3-yl)methyl]pyrrolidin-3-yl}-4-(4-fluorophenyl)-1H-imidazol-5-yl]pyrimidin-2-amine]
